Legend:
Test in all cases: Post-emergence test, weed control effect
Format in all cases: in vivo
Settings in all cases: after 3 weeks
Amaranthus retroflexus = tested on: Amaranthus retroflexus
Source text: (§1) The activity level standard of harmful plant destruction (i.e. growth inhibition rate) is as follows: • Level 10: completely dead; • Level 9: above 90% growth inhibition rate; • Level 8: above 80% growth inhibition rate; • Level 7: above 70% growth inhibition rate; • Level 6: above 60% growth inhibition rate; • Level 5: above 50% growth inhibition rate; • Level 4: above 40% growth inhibition rate; • Level 3: above 30% growth inhibition rate; • Level 2: above 20% growth inhibition rate; • Level 1: below 20% growth inhibition rate; • Level 0: no effect.
(§2) The above described growth inhibition rates are fresh weight inhibition rates.
(§3) Experiment of post-emergence test: monocotyledonous and dicotyledonous weed seeds as well as main crop seeds (i.e., wheat, corn, rice, soybean, cotton, oilseed rape, millet and sorghum) were put into a plastic pot loaded with soil, then covered with 0.5-2 cm of soil, and the seeds were allowed to grow in good greenhouse environment. The test plants were treated at 2-3 leaf stage 2-3 weeks after sowing. The test compounds of the invention were dissolved in acetone respectively, then added with Tween-80 and diluted by a certain amount of water to give solutions with certain concentrations, and added with 80% vegetable oil methyl ester synergist at 1500 g/ha. The solution was sprayed to the plants with a sprayer. The plants were cultured for 3 weeks in the greenhouse.

Chenopodiaceae = tested on: Chenopodiaceae
Source text: as §1, §2, §3

Rorippa indica = tested on: Rorippa indica
Source text: as §1, §2, §3

Veronica polita = tested on: Veronica polita
Source text: as §1, §2, §3

Cc1cc(Cl)ncc1-c1nnc(C(F)(F)F)cc1O [Compound 1018]
10: weed control effect (activity level), Amaranthus retroflexus (Amaranthus retroflexus; Dose 3000 g/ha) | weed control effect (activity level), Chenopodiaceae (Chenopodiaceae; Dose 3000 g/ha) | weed control effect (activity level), Rorippa indica (Rorippa indica; Dose 3000 g/ha) | weed control effect (activity level), Veronica polita (Veronica polita; Dose 3000 g/ha)

CCCCC(=O)Oc1cc(C(F)(F)F)nnc1-c1ccc(Cl)c(Cl)c1 [Compound 1-7]
10: weed control effect, Amaranthus retroflexus (activity level) (Amaranthus retroflexus; Dose 3000 g/ha) | weed control effect, Chenopodiaceae (activity level) (Chenopodiaceae; Dose 3000 g/ha) | weed control effect, Rorippa indica (activity level) (Rorippa indica; Dose 3000 g/ha) | weed control effect, Veronica polita (activity level) (Veronica polita; Dose 3000 g/ha)

CCCCCCCCC(=S)Oc1cc(C(F)(F)F)nnc1-c1ccc(F)cc1 [Compound 1-154]
10: weed control effect, Amaranthus retroflexus (activity level) (Amaranthus retroflexus; Dose 3000 g/ha) | weed control effect, Chenopodiaceae (activity level) (Chenopodiaceae; Dose 3000 g/ha) | weed control effect, Rorippa indica (activity level) (Rorippa indica; Dose 3000 g/ha) | weed control effect, Veronica polita (activity level) (Veronica polita; Dose 3000 g/ha)

Oc1cc(C(F)(F)F)nnc1-c1cc(Cl)cc(Cl)c1 [Compound 40]
10: weed control effect (activity level), Amaranthus retroflexus (Amaranthus retroflexus; dose 1000 g/ha) | weed control effect (activity level), Chenopodiaceae (Chenopodiaceae; dose 1000 g/ha) | weed control effect (activity level), Rorippa indica (Rorippa indica; dose 1000 g/ha) | weed control effect (activity level), Veronica polita (Veronica polita; dose 1000 g/ha)

Cc1n[nH]c(C)c1-c1nnc(C(F)(F)F)cc1O [Compound 543]
10: weed control effect (activity level), Amaranthus retroflexus (Amaranthus retroflexus; Dose 3000 g/ha) | weed control effect (activity level), Chenopodiaceae (Chenopodiaceae; Dose 3000 g/ha) | weed control effect (activity level), Rorippa indica (Rorippa indica; Dose 3000 g/ha) | weed control effect (activity level), Veronica polita (Veronica polita; Dose 3000 g/ha)

Cn1nc(C#N)cc1-c1nnc(C(F)(F)F)cc1O [Compound 791]
10: weed control effect (activity level), Amaranthus retroflexus (Amaranthus retroflexus; Dose 3000 g/ha) | weed control effect (activity level), Chenopodiaceae (Chenopodiaceae; Dose 3000 g/ha) | weed control effect (activity level), Rorippa indica (Rorippa indica; Dose 3000 g/ha) | weed control effect (activity level), Veronica polita (Veronica polita; Dose 3000 g/ha)

Oc1cc(C(F)(F)F)nnc1-c1cc(C(F)(F)F)co1 [Compound 418]
10: weed control effect (activity level), Amaranthus retroflexus (Amaranthus retroflexus; Dose 3000 g/ha) | weed control effect (activity level), Chenopodiaceae (Chenopodiaceae; Dose 3000 g/ha) | weed control effect (activity level), Rorippa indica (Rorippa indica; Dose 3000 g/ha) | weed control effect (activity level), Veronica polita (Veronica polita; Dose 3000 g/ha)

O=C(Oc1cc(C(F)(F)F)nnc1-c1ccc(F)cc1)N1CCCCC1 [Compound 1-67]
10: weed control effect, Amaranthus retroflexus (activity level) (Amaranthus retroflexus; Dose 3000 g/ha) | weed control effect, Chenopodiaceae (activity level) (Chenopodiaceae; Dose 3000 g/ha) | weed control effect, Rorippa indica (activity level) (Rorippa indica; Dose 3000 g/ha) | weed control effect, Veronica polita (activity level) (Veronica polita; Dose 3000 g/ha)

Oc1cc(C(F)(F)F)nnc1-c1ccc(Cl)cc1Cl [Compound 39]
10: weed control effect (activity level), Amaranthus retroflexus (Amaranthus retroflexus; dose 1000 g/ha) | weed control effect (activity level), Chenopodiaceae (Chenopodiaceae; dose 1000 g/ha) | weed control effect (activity level), Rorippa indica (Rorippa indica; dose 1000 g/ha) | weed control effect (activity level), Veronica polita (Veronica polita; dose 1000 g/ha)

CC(C)(C)C(=O)Oc1cc(C(F)(F)F)nnc1-c1ccc(C(F)(F)F)nc1 [Compound 1-9]
10: weed control effect, Amaranthus retroflexus (activity level) (Amaranthus retroflexus; Dose 3000 g/ha) | weed control effect, Chenopodiaceae (activity level) (Chenopodiaceae; Dose 3000 g/ha) | weed control effect, Rorippa indica (activity level) (Rorippa indica; Dose 3000 g/ha) | weed control effect, Veronica polita (activity level) (Veronica polita; Dose 3000 g/ha)

Oc1cc(C(F)(F)F)nnc1-c1cccc(C(F)(F)F)c1 [Compound 92]
10: weed control effect (activity level), Amaranthus retroflexus (Amaranthus retroflexus; dose 1000 g/ha) | weed control effect (activity level), Chenopodiaceae (Chenopodiaceae; dose 1000 g/ha) | weed control effect (activity level), Rorippa indica (Rorippa indica; dose 1000 g/ha) | weed control effect (activity level), Veronica polita (Veronica polita; dose 1000 g/ha)

CCCC(C)CC/C(C)=N\Oc1cc(C(F)(F)F)nnc1-c1ccccc1 (stereo not drawn) [Compound 1-181]
10: weed control effect, Amaranthus retroflexus (activity level) (Amaranthus retroflexus; Dose 3000 g/ha) | weed control effect, Chenopodiaceae (activity level) (Chenopodiaceae; Dose 3000 g/ha) | weed control effect, Rorippa indica (activity level) (Rorippa indica; Dose 3000 g/ha) | weed control effect, Veronica polita (activity level) (Veronica polita; Dose 3000 g/ha)

Oc1cc(C(F)(F)F)nnc1-c1cccc(Br)c1F [Compound 48]
10: weed control effect (activity level), Amaranthus retroflexus (Amaranthus retroflexus; dose 1000 g/ha) | weed control effect (activity level), Chenopodiaceae (Chenopodiaceae; dose 1000 g/ha) | weed control effect (activity level), Rorippa indica (Rorippa indica; dose 1000 g/ha) | weed control effect (activity level), Veronica polita (Veronica polita; dose 1000 g/ha)

Oc1cc(C(F)(F)F)nnc1-c1c(F)ccnc1Cl [Compound 1005]
10: weed control effect (activity level), Amaranthus retroflexus (Amaranthus retroflexus; Dose 3000 g/ha) | weed control effect (activity level), Chenopodiaceae (Chenopodiaceae; Dose 3000 g/ha) | weed control effect (activity level), Rorippa indica (Rorippa indica; Dose 3000 g/ha) | weed control effect (activity level), Veronica polita (Veronica polita; Dose 3000 g/ha)

O=C(Oc1cc(C(F)(F)F)nnc1-c1ccc(C(F)(F)F)cc1)c1cccs1 [Compound 1-106]
10: weed control effect, Amaranthus retroflexus (activity level) (Amaranthus retroflexus; Dose 3000 g/ha) | weed control effect, Chenopodiaceae (activity level) (Chenopodiaceae; Dose 3000 g/ha) | weed control effect, Rorippa indica (activity level) (Rorippa indica; Dose 3000 g/ha) | weed control effect, Veronica polita (activity level) (Veronica polita; Dose 3000 g/ha)
